From patent US7741485B2, “Benzenesulphonamide derivatives as herbicides or desiccant/defoliant compounds” (BASF Aktiengesellschaft, priority 2003, dated 2010)

Columns and labels:
velvet leaf [1] = experiment: greenhouse herbicidal test, post-emergence treatment; assay type: in vivo; conditions: application rates of 15.63 g/ha
From the text: (§1) The seeds of the test plants were sown separately for each species. For the post-emergence treatment, the test plants were first grown to a height of 3 to 15 cm, depending on the plant form, and only then treated with the active compounds, emulsified or suspended in water. The test plants were for this purpose either sown directly and grown in the same containers, or they were first grown separately as seedlings and transplanted into the test containers a few days prior to treatment. The application rate for the pre- and post-emergence treatment was from 62.5 to 3.1 g of a.s./ha. Depending on the species, the plants were kept at 10-25° C. or 20-35° C. The test period extended over 2 to 4 weeks. During this time, the plants were tended, and their response to the individual treatments was evaluated. Evaluation was carried out using a scale from 0 to 100. 100 means no emergence of the plants, or complete destruction of at least the above-ground parts, and 0 means no damage, or normal course of growth. The plants used in the greenhouse experiments were composed of the following species: [table]

Bengal commelina = experiment: as above; assay type: in vivo; conditions: application rates of 15.63 g/ha
From the text: as §1

common lambsquarters [2] = experiment: as above; assay type: in vivo
From the text: as §1

common morning glory [3] = experiment: as above; assay type: in vivo
From the text: as §1

pigweed [4] = experiment: as above; assay type: in vivo
From the text: as §1

common morning glory [5] = experiment: greenhouse herbicidal test, pre-emergence treatment; assay type: in vivo; conditions: for pre-emergence activity against common morning glory: application rates of 12.5 and 6.2 g/ha; for control of morning glory, pre-emergence method: application rates of 6.2 and 3.1 g/ha
From the text: (§2) The seeds of the test plants were sown separately for each species. For the pre-emergence treatment, the active compounds, emulsified or suspended in water, were applied directly after sowing by means of finely distributing nozzles. The containers were irrigated gently to promote germination and growth and subsequently covered with transparent plastic hoods until the plants had rooted. This cover caused uniform germination of the test plants, unless this was adversely affected by the active compounds. The application rate for the pre- and post-emergence treatment was from 62.5 to 3.1 g of a.s./ha. Depending on the species, the plants were kept at 10-25° C. or 20-35° C. The test period extended over 2 to 4 weeks. During this time, the plants were tended, and their response to the individual treatments was evaluated. Evaluation was carried out using a scale from 0 to 100. 100 means no emergence of the plants, or complete destruction of at least the above-ground parts, and 0 means no damage, or normal course of growth. The plants used in the greenhouse experiments were composed of the following species: [table]

wild buckwheat = experiment: as above; assay type: in vivo; conditions: application rates of 12.5 and 6.2 g/ha
From the text: as §2

common lambsquarters [6] = experiment: as above; assay type: in vivo; conditions: for pre-emergence activity against common lambsquarters: application rates of 12.5 and 6.2 g/ha; for control of common lambsquarters, pre-emergence method: application rates of 6.2 and 3.1 g/ha
From the text: as §2

pigweed [7] = experiment: as above; assay type: in vivo; conditions: for pre-emergence activity against pigweed: application rates of 12.5 and 6.2 g/ha; for control of pigweed, pre-emergence method: application rates of 6.2 and 3.1 g/ha
From the text: as §2

ladysthumb = experiment: greenhouse herbicidal test, post-emergence treatment; assay type: in vivo; conditions: for post-emergence activity against ladysthumb: application rates of 15.6 and 7.8 g/ha; for post-emergence activity against ladiesthumb: application rates of 15.63 g/ha
From the text: as §1

velvet leaf [8] = experiment: greenhouse herbicidal test, pre-emergence treatment; assay type: in vivo; conditions: for control of velvet leaf, pre-emergence method: application rates of 6.2 and 3.1 g/ha
From the text: as §2

common nightshade = experiment: as above; assay type: in vivo; conditions: application rates of 62.5 and 31.2 g/ha
From the text: as §2

cleavers harrif = experiment: greenhouse herbicidal test, post-emergence treatment; assay type: in vivo; conditions: application rates of 15.63 g/ha
From the text: as §1

[9] = application rates of 15.63 g/ha
[10] = application rates of 15.6 and 7.8 g/ha
[11] = application rates of 62.5 and 31.2 g/ha

Question: For CNC(=O)NS(=O)(=O)c1cc(-n2c(=O)cc(C(F)(F)F)n(C)c2=O)c(F)cc1Cl [Compound 2.17], which “post-emergence activity against velvet leaf” value (velvet leaf [1]) is on record?
Answer: very good

Question: And the “post-emergence activity against Bengal commelina” value (Bengal commelina)?
Answer: very good

Question: And the “post-emergence activity against common lambsquarters” value (common lambsquarters [2]; [9])?
Answer: very good

Question: For CC(C)N(C(=O)NS(=O)(=O)c1cc(-n2c(=O)cc(C(F)(F)F)n(C)c2=O)c(F)cc1Cl)C(C)C [Compound 2.27], which “post-emergence activity against common morning glory” value (common morning glory [3]; [9]) is on record?
Answer: very good

Question: And the “post-emergence activity against pigweed” value (pigweed [4]; [9])?
Answer: very good

Question: What does the source list for C#CC(C)N(C)C(=O)NS(=O)(=O)c1cc(-n2c(=O)cc(C(F)(F)F)n(C)c2=O)c(F)cc1Cl (stereo not drawn) [Compound 2.28]?
Answer: post-emergence activity against common morning glory (common morning glory [3]; [9]): very good; post-emergence activity against common lambsquarters (common lambsquarters [2]; [9]): very good; post-emergence activity against pigweed (pigweed [4]; [9]): very good

Question: For Cn1c(C(F)(F)F)cc(=O)n(-c2cc(S(=O)(=O)NC(=O)Nc3ccccc3)c(Cl)cc2F)c1=O [Compound 2.29], which “post-emergence activity against common morning glory” value (common morning glory [3]; [10]) is on record?
Answer: very good

Question: And the “post-emergence activity against common lambsquarters” value (common lambsquarters [2]; [10])?
Answer: very good

Question: And the “post-emergence activity against pigweed” value (pigweed [4]; [10])?
Answer: very good

Question: Which “pre-emergence activity against common morning glory” value (common morning glory [5]) does the source give for COC(=O)NS(=O)(=O)c1cc(-n2c(=O)cc(C(F)(F)F)n(C)c2=O)ccc1Cl [Compound 3.1] here?
Answer: very good

Question: And the “pre-emergence activity against wild buckwheat” value (wild buckwheat)?
Answer: very good

Question: And the “pre-emergence activity against common lambsquarters” value (common lambsquarters [6])?
Answer: very good

Question: What about the “pre-emergence activity against pigweed” value (pigweed [7]) of the same molecule?
Answer: very good

Question: For COC(=O)NS(=O)(=O)c1cc(-n2c(=O)cc(C(F)(F)F)n(C)c2=O)c(F)cc1Cl [Compound 3.18], which “pre-emergence activity against common morning glory” value (common morning glory [5]) is on record?
Answer: very good

Question: And the “pre-emergence activity against wild buckwheat” value (wild buckwheat)?
Answer: very good

Question: What about the “pre-emergence activity against common lambsquarters” value (common lambsquarters [6]) of the same molecule?
Answer: very good

Question: What about the “pre-emergence activity against pigweed” value (pigweed [7]) of the same molecule?
Answer: very good

Question: With CCOC(=O)NS(=O)(=O)c1cc(-n2c(=O)cc(C(F)(F)F)n(C)c2=O)c(F)cc1Cl [Compound 3.19] as the molecule, how does the “post-emergence activity against common morning glory” value (common morning glory [3]; [10]) read?
Answer: very good

Question: What about the “post-emergence activity against ladysthumb” value (ladysthumb) of the same molecule?
Answer: very good

Question: And the “post-emergence activity against common lambsquarters” value (common lambsquarters [2]; [10])?
Answer: very good

Question: And the “post-emergence activity against pigweed” value (pigweed [4]; [10])?
Answer: very good

Question: Which “post-emergence activity against common morning glory” value (common morning glory [3]; [10]) does the source give for CCCOC(=O)NS(=O)(=O)c1cc(-n2c(=O)cc(C(F)(F)F)n(C)c2=O)c(F)cc1Cl [Compound 3.20] here?
Answer: very good

Question: And the “post-emergence activity against ladysthumb” value (ladysthumb)?
Answer: very good

Question: What about the “post-emergence activity against common lambsquarters” value (common lambsquarters [2]; [10]) of the same molecule?
Answer: very good

Question: And the “post-emergence activity against pigweed” value (pigweed [4]; [10])?
Answer: very good

Question: With CCCCOC(=O)NS(=O)(=O)c1cc(-n2c(=O)cc(C(F)(F)F)n(C)c2=O)c(F)cc1Cl [Compound 3.22] as the molecule, how does the “post-emergence activity against common morning glory” value (common morning glory [3]; [10]) read?
Answer: very good

Question: What about the “post-emergence activity against ladysthumb” value (ladysthumb) of the same molecule?
Answer: very good

Question: And the “post-emergence activity against common lambsquarters” value (common lambsquarters [2]; [10])?
Answer: very good

Question: And the “post-emergence activity against pigweed” value (pigweed [4]; [10])?
Answer: very good

Question: With CC(C)COC(=O)NS(=O)(=O)c1cc(-n2c(=O)cc(C(F)(F)F)n(C)c2=O)c(F)cc1Cl [Compound 3.24] as the molecule, how does the “control of velvet leaf, pre-emergence method” value (velvet leaf [8]) read?
Answer: very good

Question: What about the “control of morning glory, pre-emergence method” value (common morning glory [5]) of the same molecule?
Answer: very good

Question: What about the “control of common lambsquarters, pre-emergence method” value (common lambsquarters [6]) of the same molecule?
Answer: very good

Question: And the “control of pigweed, pre-emergence method” value (pigweed [7])?
Answer: very good

Question: With CCCCCOC(=O)NS(=O)(=O)c1cc(-n2c(=O)cc(C(F)(F)F)n(C)c2=O)c(F)cc1Cl [Compound 3.26] as the molecule, how does the “post-emergence activity against common morning glory” value (common morning glory [3]; [10]) read?
Answer: very good

Question: And the “post-emergence activity against common lambsquarters” value (common lambsquarters [2]; [10])?
Answer: very good

Question: What about the “post-emergence activity against pigweed” value (pigweed [4]; [10]) of the same molecule?
Answer: very good

Question: For Cn1c(C(F)(F)F)cc(=O)n(-c2cc(S(=O)(=O)NC(=O)OC3CCCC3)c(Cl)cc2F)c1=O [Compound 3.27], which “post-emergence activity against common morning glory” value (common morning glory [3]; [10]) is on record?
Answer: very good

Question: What about the “post-emergence activity against ladysthumb” value (ladysthumb) of the same molecule?
Answer: very good

Question: And the “post-emergence activity against common lambsquarters” value (common lambsquarters [2]; [10])?
Answer: very good

Question: What about the “post-emergence activity against pigweed” value (pigweed [4]; [10]) of the same molecule?
Answer: very good

Question: With Cn1c(C(F)(F)F)cc(=O)n(-c2cc(S(=O)(=O)NC(=O)OCc3ccccc3)c(Cl)cc2F)c1=O [Compound 3.32, Benzyl{2-chloro-4-fluoro-5-[3,6-dihydro-3-methyl-2,6-dioxo-4-trifluoromethyl-(2H)-pyrimidin-1-yl]phenyl}sulfonylcarbamate] as the molecule, how does the “effectiveness against velvet leaf, pre-emergence method” value (velvet leaf [8]; [11]) read?
Answer: very good

Question: And the “effectiveness against common nightshade, pre-emergence method” value (common nightshade)?
Answer: very good

Question: And the “effectiveness against common lambsquarters, pre-emergence method” value (common lambsquarters [6]; [11])?
Answer: very good

Question: What about the “effectiveness against pigweed, pre-emergence method” value (pigweed [7]; [11]) of the same molecule?
Answer: very good

Question: With COC(=O)COC(=O)NS(=O)(=O)c1cc(-n2c(=O)cc(C(F)(F)F)n(C)c2=O)c(F)cc1Cl [Compound 3.41] as the molecule, how does the “post-emergence activity against cleavers harrif” value (cleavers harrif) read?
Answer: very good

Question: What about the “post-emergence activity against ladiesthumb” value (ladysthumb) of the same molecule?
Answer: very good

Question: And the “post-emergence activity against pigweed” value (pigweed [4]; [9])?
Answer: very good

Question: For COCC(C)(C)OC(=O)NS(=O)(=O)c1cc(-n2c(=O)cc(C(F)(F)F)n(C)c2=O)c(F)cc1Cl [Compound 3.42], which “post-emergence activity against velvet leaf” value (velvet leaf [1]) is on record?
Answer: very good

Question: And the “post-emergence activity against common morning glory” value (common morning glory [3]; [9])?
Answer: very good

Question: What about the “post-emergence activity against ladiesthumb” value (ladysthumb) of the same molecule?
Answer: very good

Question: With CC(C)C(=O)NS(=O)(=O)c1cc(-n2c(=O)cc(C(F)(F)F)n(C)c2=O)ccc1Cl [Compound 4.5, N-isobutynyl-[2-chloro-5-(3,6-dihydro-3-methyl-2,6-dioxo-4-trifluoromethyl-1-(2H)-pyrimidinyl)]benzenesulfonamide] as the molecule, how does the melting point read?
Answer: 114 to 116 °C

Question: Which “post-emergence activity against cleavers harrif” value (cleavers harrif) does the source give for CCC(=O)NS(=O)(=O)c1cc(-n2c(=O)cc(C(F)(F)F)n(C)c2=O)c(F)cc1Cl [Compound 4.14] here?
Answer: very good

Question: And the “post-emergence activity against ladiesthumb” value (ladysthumb)?
Answer: very good

Question: What about the “post-emergence activity against pigweed” value (pigweed [4]; [9]) of the same molecule?
Answer: very good

Question: What does the source list for CC(C)C(=O)NS(=O)(=O)c1cc(-n2c(=O)cc(C(F)(F)F)n(C)c2=O)c(F)cc1Cl [Compound 4.16]?
Answer: control of velvet leaf, pre-emergence method (velvet leaf [8]): very good; control of morning glory, pre-emergence method (common morning glory [5]): very good; control of common lambsquarters, pre-emergence method (common lambsquarters [6]): very good; control of pigweed, pre-emergence method (pigweed [7]): very good
